The test system of series [1] is Escherichia coli ATCC 25922. The series is described as follows: mouse septicemia model. As to conditions: mortality recorded for 7 days, E. coli ATCC 25922 mouse septicemia. The class given is in vivo, ICR male mice. The procedure:
(§1) Mice were inoculated intraperitoneally with 2×10^5 cfu/mouse in 0.5 ml of Brain-Heart Infusion broth supplemented with 5% mucin. The compound was tested at 40, 20, 10, 5 and 2.5 mg/kg orally (PO) or at 20, 10, 5 and 2.5 mg/kg intravenously (IV) at 1 and 5 hours after bacterial inoculation. Controls included vehicle control (0.9% NaCl, 10 ml/kg) and an antibiotic control with ampicillin. Mortality was recorded for 7 days, and an ED50 was determined by non-linear regression.

The subject of series [2] is Escherichia coli. As to conditions: cited from earlier work.
For series [3], the system named is Salmonella enteriditis. As to conditions: cited from earlier work.
Series [4] relates to Salmonella typhimurium. As to conditions: cited from earlier work.
Series [5] has as its system Cryptococcus neoformans. As to conditions: cited from earlier work.
The test system of series [6] is Proteius mirabilis. The following applies: cited from earlier work.
Series [7] relates to Streptococcus pneumoniae PenS. The series is described as follows: in vitro MIC assay. Type of series: cell-based. The following applies: activity = MIC<128 μg/ml. As for the experimental part:
(§2) The ability of negamycin or deoxynegamycin, or pharmaceutically acceptable salts, prodrugs or isomers thereof, to treat bacterial infection was measured by in vitro assay described below. The compounds were kept in DMSO at 10 mg/ml and diluted into the test medium for the assay.
(§3) The strains used for assaying negamycin include the following: Acinetobacter baumanii, Citrobacter freundii, Enterobacter aerogenes, Haemophilus influenzae, Moraxella catarrhalis, Staphylococcus aureus MRSA, Staphylococcus aureus GISA, Staphylococcus epidermis, Streptococcus pneumoniae PenR, Streptococcus pneumoniae PenS, Streptococcus pyogenes, Helicobacter pylori and E. faecium. The strains used for assaying deoxynegamycin include the following: Haemophilus influenzae, Staphylococcus aureus MRSA, Staphylococcus aureus GISA, Staphylococcus epidermis, Streptococcus pneumoniae PenR, Streptococcus pneumoniae PenS, Streptococcus pyogenes and E. facium.
(§4) (1) Liquid Medium, Nutrient Broth and Mueller-Hinton Broth with 50% Human Serum
(§5) Compounds were suspended in a DMSO solution containing 10 mg/ml of compound. The appropriate amount of compound was added to a well of the first column of a 96-well microtiter plate containing 100 μl of Nutrient Broth (NB) or Mueller-Hinton Broth with 50% human serum (MHB+HS), for S. pneumoniae the NB medium was supplemented with 3 or 5% lysed horse blood. The rest of the wells in the row had 50 μl of the same medium in each well. After adding the compound to the first well and mixing thoroughly, 50 μl was taken out, and mixed to the second well of the row. This operation was repeated until the well of column 11 was reached and, after mixing, 50 μl were discarded. […] A concentration gradient of two-fold dilution was achieved by this method. A distinct compound was added to the first column well of the next row of the microtiter plate, and the procedure was repeated until all the rows are used. The plate was then ready for inoculation.
(§6) Bacterial strains were inoculated from a frozen stock on Mueller-Hinton Agar (Difco) or Blood Agar for S. pneumoniae and grown at 35° C. overnight. Cells were suspended in sterile saline to 0.5 McFarland standard. The inoculum was diluted approximately 1:1000 in the appropriate medium to reach an inoculum size of 10^5 cfu/ml (NB, NB supplemented with 3 or 5% lysed horse blood for S. pneumoniae, or MHB+HS). The diluted cell suspension was used to inoculate the microtiter plate containing two-fold dilution of the test compound. Each well of the microtiter plate received 50 μl of the cell suspension. The final volume was 100 μl (50 μl from the inoculum and 50 μl of the medium containing the compound).
(§7) The plates were incubated at 35° C. for 16 to 20 hours, the minimal inhibitory concentration (MIC) was recorded and was defined as the lowest concentration of compound that there is no visible growth.
(§8) (2) Solid Medium, Mueller-Hinton Agar with 50% Human Serum
(§9) Compounds were suspended in a DMSO solution containing 10 mg/ml of compound. The appropriate amount of compound was added to melted Mueller-Hinton Agar with 50% human serum (MHA+HS) at 50° C. The medium has been prepared by adding human serum to a melted Mueller-Hinton Agar (MHA) at two fold the concentration. MHA+HS has 50% human serum and normal strength of MHA. The appropriate concentration of compound was added to 4 ml of melted MHA+HS, and poured in a 6 cm diameter petri dish, and the agar was allowed to solidify at room temperature. A set of petri dishes, each dish containing half the concentration of compound of the previously poured dish, was made and used to assess the MIC in solid medium.
(§10) Bacterial strains were inoculated from a frozen stock on Mueller-Hinton Agar (Difco) or Blood Agar for S. pneumoniae and grown at 35° C. overnight. Cells are suspended in sterile saline to 0.5 McFarland standard. The inoculum was diluted approximately 1:10 in sterile saline water to obtain a bacterial suspension at 10^7 cfu/ml. […]

Series [8] relates to Staphylococcus aureus MRSA. The series is described as follows: in vitro MIC assay. The class given is cell-based. The following applies: activity = MIC<128 μg/ml. As for the experimental part: as §2, §3, §4, §5, §6, §7, §8, §9, §10
For series [9], the system named is Haemophilus influenzae. The series is described as follows: in vitro MIC assay. The class given is cell-based. As to conditions: activity = MIC<128 μg/ml. As for the experimental part:
as §2, §3, §4, §5, §6, §7, §8, §9, §10

Series [10] deals with E. faecium. The series is described as follows: in vitro MIC assay. The following applies: activity = MIC<128 μg/ml. The class given is cell-based. The procedure: as §2, §3, §4, §5, §6, §7, §8, §9, §10
In series [11] the test system is Staphylococcus epidermis. The series is described as follows: in vitro MIC assay. Type of series: cell-based. As to conditions: activity = MIC<128 μg/ml. The procedure:
as §2, §3, §4, §5, §6, §7, §8, §9, §10

The test system of series [12] is Staphylococcus aureus GISA. The series is described as follows: in vitro MIC assay. Type of series: cell-based. As to conditions: activity = MIC<128 μg/ml. The procedure:
as §2, §3, §4, §5, §6, §7, §8, §9, §10

For series [13], the system named is Streptococcus pneumoniae PenR. The series is described as follows: in vitro MIC assay. The class given is cell-based. The following applies: activity = MIC<128 μg/ml. The procedure: as §2, §3, §4, §5, §6, §7, §8, §9, §10
Series [14] deals with Streptococcus pyogenes. The series is described as follows: in vitro MIC assay. The class given is cell-based. The following applies: activity = MIC<128 μg/ml. As for the experimental part: as §2, §3, §4, §5, §6, §7, §8, §9, §10
Series [15] has as its system Herellea vaginicola. The following applies: cited from earlier work.
Series [16] concerns Serratia marcescens. As to conditions: cited from earlier work.
Series [17] concerns Candida albicans. The following applies: cited from earlier work.
In series [18] the test system is Klebsiella pneumoniae. The following applies: cited from earlier work.
Series [19] has as its system Trichophyton tonsurans. The following applies: cited from earlier work.
Series [20] relates to Mycobacterium smegmatis. As to conditions: cited from earlier work.
Series [21] has as its system Pseudomonas fluorescens. The following applies: cited from earlier work.
Series [22] has as its system Enterobacter sp. The following applies: cited from earlier work.
Series [23] relates to Proteus rettgeri. The following applies: cited from earlier work.
The subject of series [24] is Pseudomonas aeruginosa. As to conditions: cited from earlier work.
In series [25] the test system is Staphylococcus aureus. The following applies: cited from earlier work.
Series [26] has as its system Proteus vulgaris. The following applies: cited from earlier work.
Series [27] deals with Trichophyton mentagraphytes. The following applies: cited from earlier work.
Series [28] relates to Shigella flexneri. As to conditions: cited from earlier work.
The subject of series [29] is Salmonella typhi. As to conditions: cited from earlier work.
Series [30] has as its system Enterobacter aerogenes. As to conditions: cited from earlier work.
In series [31] the test system is Shigella sonnei. The following applies: cited from earlier work.
Series [32] relates to Moraxella catarrhalis. The series is described as follows: in vitro MIC assay. The class given is cell-based. The following applies: activity = MIC<128 μg/ml. The procedure:
as §2, §3, §4, §5, §6, §7, §8, §9, §10

In series [33] the test system is Citrobacter freundii. The series is described as follows: in vitro MIC assay. Type of series: cell-based. As to conditions: activity = MIC<128 μg/ml. The procedure: as §2, §3, §4, §5, §6, §7, §8, §9, §10
Series [34] relates to Acinetobacter baumanii. The series is described as follows: in vitro MIC assay. The class given is cell-based. The following applies: Acinetobacter baumannii, activity = MIC<128 μg/ml. The procedure:
as §2, §3, §4, §5, §6, §7, §8, §9, §10

Series [35] concerns Enterobacter aerogenes. The series is described as follows: in vitro MIC assay. The following applies: Klebsiella aerogenes, activity = MIC<128 μg/ml. The class given is cell-based. As for the experimental part: as §2, §3, §4, §5, §6, §7, §8, §9, §10
In series [36] the test system is Helicobacter pylori. The series is described as follows: in vitro MIC assay. Type of series: cell-based. As to conditions: activity = MIC<128 μg/ml. The procedure: as §2, §3, §4, §5, §6, §7, §8, §9, §10
Series [37] deals with Salmonella typhosa. As to conditions: cited from earlier work.
The subject of series [38] is S. Aureus. The series is described as follows: ED50 against S. Aureus. The class given is in vivo. As to conditions: Staphylococcus aureus, route not stated. The procedure: as §1
The conditions of series [39]: kept at 37° C. for one month, cited from earlier work.
Where [40] appears, read: ATCC25922, intravenously (IV) at 1 and 5 hours after inoculation.
Setting [41] is: ATCC25922, orally (PO) at 1 and 5 hours after inoculation.

Like-named read-outs stand apart in the source and are kept apart here.

`CC1(C)S[C@@H]2[C@H](NC(=O)[C@H](N)c3ccccc3)C(=O)N2[C@H]1C(=O)O` [Ampicillin, reference compound]: the 50% effective dose (ED50) (in general, the dose at which the effect has come halfway, by size or by number of responders) in [1] (setting [40]) stood at 6.8 mg/kg; in series [1] (setting [41]), 27.6 mg/kg.
For the compound `CN(CC(=O)O)NC(=O)C[C@H](N)CCCN` [Deoxynegamycin, D-3,6-diaminiohexanoic acid-2-(carboxymethyl)-2-methylhyrazide], the “reported as effective against organism” value in series [2], in series [3], in [4], in series [5], in [6] and in [15] was “effective” each time. In addition, the “reported as effective against organism” value in series [16], in series [17], in series [18], in series [19], in [20] and in series [21] was “effective” in each case. The “reported as effective against organism” value in [22], in [23], in series [24], in series [25], in [26] and in series [27] was “effective” each time. The “reported as effective against organism” value in series [28], in series [29] and in series [30] was “effective” in each case. Besides, the MIC result was “exhibited activity” in series [7]; “exhibited activity” in series [8]; “exhibited activity” in series [9]; “inactive” in series [10]; “exhibited activity” in series [11]; “exhibited activity” in series [12]. In addition, the MIC result in series [13] and in series [14] was “exhibited activity” throughout. The compound further had an ED50 in series [1] (setting [40]) of 4.8 mg/kg.
As for `CN(CC(=O)O)NC(=O)C[C@H](N)C[C@@H](O)CN` [Negamycin, [2-{(3R,5R)-3,6-diamino-5-hydroxyhexanoyl}-1-methylhydrazino]acetic acid], the “reported as effective against organism” value in [2], in [3], in [31], in series [4], in series [15] and in series [16] was “effective” each time. The “reported as effective against organism” value in [18], in series [37], in [20], in series [21], in series [22] and in series [23] was “effective” in each case. For the same compound, the “reported as effective against organism” value in series [24], in [25], in series [26], in series [28] and in series [29] was “effective” in each case. Further, the MIC in [32], in series [33], in series [7] (read-out: MIC), in series [34], in [8] (read-out: MIC) and in [9] (read-out: MIC) was less than 128 µg/mL in each case. For the same compound, the MIC entry in series [10] is “inactive”; in series [11] (read-out: MIC), less than 128 µg/mL; in [12] (read-out: MIC), less than 128 µg/mL; in [13] (read-out: MIC), less than 128 µg/mL; in series [14] (read-out: MIC) it was less than 128 µg/mL; in series [35] it was less than 128 µg/mL. The MIC in series [36] is less than 128 µg/mL. In addition, the ED50 in [1] (setting [40]) came to 4.1 mg/kg; in [1] (setting [41]), 15.1 mg/kg; in series [38], 16.8 mg/kg. For the same compound, the “activity reduced to” value in series [39] (in 0.02N HCl aqueous solution) is listed as 50%; in series [39] (in aqueous solution), 63%.

These data come from US20030109583A1 (priority 2001, published 2003).
